Laboratory results reported in US20160279204A1, “PEPTIDES AND PHARMACEUTICAL COMPOSITIONS FOR USE IN THE TREATMENT BY NASAL ADMINISTRATION OF PATIENTS SUFFERING FROM ANXIETY AND SLEEP DISORDERS” (MAX-PLANCK-GESELLSCHAFT ZUR FÖRDERUNG DER WISSENSCHAFT E.V., priority 2011, published 2016).
“Also recorded” adds a separate entry of the source.

Assays:
Bl6 and HAB mice [1] = test: Dark-light test after intranasal NPS; format: in vivo, mouse; settings: for time spent in the light chamber / total distance traveled: intranasal, 4 hrs
Description: (§1) Behavioural tests (open field, dark-light test and elevated plus maze (EPM)) following intranasal NPS application were performed sequentially. Each test lasted for 5 min with an inter-test interval of 5 min, as described previously (Bunck et al., 2009; Krömer et al., 2005). The animals' behaviour during testing was videotaped and relevant parameters were analysed with the tracking software ANY-maze version 4.30 (Stoelting, Wood Dale, Ill., USA). Native NPS (1 μg/μL) or vehicle (Ringer solution) were administered intranasally to the alert mouse as described above (total volume: 14 μL). Mice were tested 30 min and 4 hrs after intranasal administration of first drop. Animals were sacrificed 24 hrs after treatment and prefrontal cortex and bilateral hippocampi were prepared immediately and shock-frozen in methylbutane.
(§2) After having ascertained that nasally administered NPS reaches its target cells, anxiolytic effects of NPS were established for this transnasal delivery method. For this purpose, nasally 6.36 nmol NPS per mouse was administered to two mouse strains, Bl6 and HAB (high anxiety behaviour) mice. HAB animals, a mouse strain inbred for pathologically high anxiety, were chosen together with Bl6 mice to allow differentiation between the temporary condition of state anxiety and the general condition of trait anxiety (Bunck et al., 2009; Kromer et al., 2005). To accurately characterise the anxiety-relieving properties of NPS in these two mouse strains, three standardised behavioural assays measuring anxiolytic effects at two different time points after intranasal NPS administration were performed. In each test, the effects of intranasal NPS versus vehicle treatment on both anxiety- and locomotion-related indices were examined.

Bl6 and HAB mice [2] = test: Open field after intranasal NPS; format: in vivo, mouse
Description: as §1, §2

[3] = tested on: CA3-CA1 synapses of the VH; test: Field potential recordings in VH slices after intranasal NPS; parameters: species or system mouse; settings: for paired-pulse facilitation: interstimulus intervals 25, 50, 100, 200 ms
Description: Mice were then allowed to rest for 2 h before slice preparation and electrophysiological recording.
Brains were dissected and placed in ice-cold carbogenated ACSF. 350 μm horizontal slices containing the VH were prepared using a vibroslicer. Afterwards, the slices were incubated for 30 min at 34° C. and subsequently stored at room temperature. For experiments, slices were placed in a submerged recording chamber and continuously superfused with carbogenated ACSF at a flow rate of 3 mL/min. Square pulse electrical stimuli (50 μs pulse width) were delivered via a bipolar tungsten electrode (insulated to the tip, 50 μm pole diameter) that was positioned within the stratum radiatum of the CA1 region. All recordings were performed at room temperature, low-pass filtered at 1 kHz, and digitised at 5 kHz. Evoked field excitatory postsynaptic potentials (fEPSPs) were recorded using glass micro-electrodes (1 MΩ open-tip resistance), filled with ACSF and also positioned within the CA1 stratum radiatum. Stimulus intensities were adjusted in a manner to produce a fEPSP of ˜50% of that amplitude at which a population spike becomes clearly observable. Paired-pulse facilitation was measured at interstimulus intervals of 25, 50, 100, 200, and 400 ms and the paired-pulse ratio was calculated as fEPSP2 amplitude/fEPSP1 amplitude.

C57BL/6N mice [4] = test: Open field after bilateral NPS injection into CA1 of the VH; format: in vivo, mouse; settings: 0.1 nmol NPS each side into CA1 of VH, 30 min
Description: Animals were fixed in a stereotactic frame and maintained under isoflurane anesthesia (Forene® 100%, V/V; induction: 2.5%; maintenance: 1.5%; in O2; flow rate: 1 L/min). The mice received acute analgesic treatment with Metacam s.c. during surgery (0.5 mg/kg; in NaCl). 23 gauge stainless-steel guide cannulas were implanted in the CA1 region of the VH at the following coordinates: 3.1 mm posterior, ±3 mm lateral from bregma, and 2 mm ventral from the skull surface (Franklin and Paxinos, 2007). The guide cannulas were fixed with two screws and a two-component adhesive. For behavioural experiments, animals were implanted bilaterally for later bilateral injection, whereas for Cy3-NPS injections, implantation was performed unilaterally. The animals were allowed to recover for at least 6 days before starting the behavioural experiments. Substance infusions were carried out manually, on mice anesthetised by brief inhalation of isoflurane, using a 30 gauge injection cannula connected to a Tygon tube and a 10 μL Hamilton syringe. […]
Mice were injected bilaterally either with 0.1 nmol NPS in 0.5 μL ACSF for each side or with 0.5 μL of ACSF for each side. […] Animal behaviour was videotaped and relevant parameters were analysed using the tracking software ANY-maze version 4.30 (Stoelting, Wood Dale, Ill., USA). […]

C57BL/6N mice [5] = test: Elevated plus maze after bilateral NPS injection into CA1 of the VH; format: in vivo, mouse; settings: 0.1 nmol NPS each side into CA1 of VH, 30 min
Description: Animals were fixed in a stereotactic frame and maintained under isoflurane anesthesia (Forene® 100%, V/V; induction: 2.5%; maintenance: 1.5%; in O2; flow rate: 1 L/min). The mice received acute analgesic treatment with Metacam s.c. during surgery (0.5 mg/kg; in NaCl). 23 gauge stainless-steel guide cannulas were implanted in the CA1 region of the VH at the following coordinates: 3.1 mm posterior, ±3 mm lateral from bregma, and 2 mm ventral from the skull surface (Franklin and Paxinos, 2007). The guide cannulas were fixed with two screws and a two-component adhesive. For behavioural experiments, animals were implanted bilaterally for later bilateral injection, whereas for Cy3-NPS injections, implantation was performed unilaterally. The animals were allowed to recover for at least 6 days before starting the behavioural experiments. Substance infusions were carried out manually, on mice anesthetised by brief inhalation of isoflurane, using a 30 gauge injection cannula connected to a Tygon tube and a 10 μL Hamilton syringe. After infusion, the injection cannula was kept in place for additional 30 s to prevent substance outflow.
Mice were injected bilaterally either with 0.1 nmol NPS in 0.5 μL ACSF for each side or with 0.5 μL of ACSF for each side. 30 min after injection, three behavioural assays [open field, dark-light test, and elevated plus maze (EPM)] were performed sequentially in the order mentioned. Each test lasted 5 min, with a 5 min break in between, as described in Kromer et al., 2005 and Bunck et al., 2009. Animal behaviour was videotaped and relevant parameters were analysed using the tracking software ANY-maze version 4.30 (Stoelting, Wood Dale, Ill., USA). Mice were sacrificed 24 h after completion of behavioural assays and the locations of the guide cannulas were checked in histological cryosections of 40 μm counterstained with DAPI. Mice with deviating injection sites were excluded from further analysis.

[6] = tested on: GluR1, GluR2, Glt-1, synapsin; test: Immunoblotting of prefrontal cortex and hippocampus lysates after intranasal NPS; format: in vivo, mouse; settings: 24 hrs after intranasal NPS
Description: as §1
For immunoblotting, proteins were extracted from aforementioned two brain regions (prefrontal cortex and bilateral hippocampi). Quantitative blot analysis was performed using ImageJ software (http://rsbweb.nih.gov/ij/; Rasband, W. S., ImageJ, U.S. National Institutes of Health). Primary antibodies used: Glt-1, Glu-R1, Glu-R2 (all 1:100; all from Santa Cruz Biotechnology, Santa Cruz, Calif., USA), synapsin (1:2000; Synaptic Systems, Goettingen, Germany) and GAPDH (1:2000, Santa Cruz Biotechnology, Santa Cruz, Calif., USA). Secondary antibodies used: donkey anti-goat IgG-HRP (1:10000; Santa Cruz Biotechnology, Santa Cruz, Calif., USA), goat anti-rabbit IgG-HRP (1:7500, Sigma-Aldrich, St. Louis, Mo., USA) and goat anti-mouse IgG-HRP (1:25000, Sigma-Aldrich, St. Louis, Mo., USA).

[7] = Bl6 and HAB mice, intranasal 6.36 nmol per mouse, 30 min

**Q.** What does the source list for “neuropeptide S (SFRNGVGSGVKKTSFRRAKQ; Neuropeptide S; UniProt P0C0P7 70-89, looked up) [NPS, peptide agonist of neuropeptide S receptor (NPSR); native NPS, rat, from Bachem]”?
**A.** behavioural differences versus vehicle in dark-light test (Bl6 and HAB mice [1]; [7]): no behavioural differences; time spent in the light chamber (Bl6 and HAB mice [1]; Bl6 mice): did not differ significantly; total distance traveled (Bl6 and HAB mice [1]; Bl6 mice): did not differ significantly; time spent in the light chamber (Bl6 and HAB mice [1]; HAB mice): significantly increased; total distance traveled (Bl6 and HAB mice [1]; HAB mice): unaffected; behavioural differences versus vehicle in open field (Bl6 and HAB mice [2]; [7]): no behavioural differences; any parameter examined in the open field (Bl6 and HAB mice [2]; Bl6 mice, intranasal, 4 hrs): no effect; any parameter tested in the open field (Bl6 and HAB mice [2]; HAB mice, intranasal, 4 hrs): no differences; magnitude of LTP induced by high-frequency stimulation ([3]; C57BL/6N mice): weakened; also recorded: decreased the magnitude of LTP; input-output curve (fEPSP amplitudes) ([3]; C57BL/6N mice, approximately 3 h after treatment): shift of input-output curves towards bigger fEPSP amplitudes; also recorded: shift of the input-output curve towards bigger fEPSP amplitudes; paired-pulse facilitation ([3]; C57BL/6N mice): weakened; also recorded: reduced paired-pulse facilitation; input-output curve (fEPSP amplitudes) ([3]; HAB mice): increase; also recorded: shift of the input-output curve towards bigger fEPSP amplitudes; magnitude of LTP ([3]; HAB mice): reduction; also recorded: decreased the magnitude of LTP; paired-pulse facilitation ([3]; HAB mice): reduction; also recorded: reduced paired-pulse facilitation; distance traveled / locomotion in the open field (C57BL/6N mice [4]): did not affect locomotion; also recorded: not changed; anxiety-related behaviour on the EPM (C57BL/6N mice [5]): significant anxiolytic effect; also recorded: decreased anxiety-related behaviour; increase in the percentage of time spent on the open arms compared to vehicle-treated mice (C57BL/6N mice [5]): 28%; locomotion on the EPM (C57BL/6N mice [5]): did not affect locomotion; also recorded: without affecting locomotion; synapsin expression ([6]; Bl6 mice, hippocampus versus prefrontal cortex): significantly increased in the hippocampus only; GluR1, GluR2 and Glt-1 expression ([6]; Bl6 mice, hippocampus): remained unaffected; Glt-1 expression level ([6]; Bl6 mice, prefrontal cortex): significantly increased; GluR1 expression level ([6]; Bl6 mice, prefrontal cortex): significantly increased; GluR2 expression ([6]; Bl6 mice, prefrontal cortex): remained unchanged; protein expression changes in the hippocampus ([6]; HAB mice, hippocampus): no corresponding changes; Glt-1 levels ([6]; HAB mice, prefrontal cortex): remained unchanged; GluR1 expression ([6]; HAB mice, prefrontal cortex): not affected; GluR2 expression ([6]; HAB mice, prefrontal cortex): significantly increased
